Data: publication PMC8151276, “An Integrated Approach toward NanoBRET Tracers for Analysis of GPCR Ligand Engagement” (Molecules, 2021)

Columns and labels:
ADORA2A = target: T1, ADORA2A (Homo sapiens, UniProt P29274); assay: NanoBRET screen HiBiT-ADORA2A in HEK293; assay type: binding
T1 construct: purchased Promega (in-house HiBiT-GPCR construct library, NanoBRET)
Procedure: (§1) Each tracer candidate was screened across the entire library of HiBiT-GPCR constructs using NanoBRET as the detection modality. As depicted in Figure 4A, the specificity of interactions was evaluated through decrease in BRET due to competitive displacement of a bound tracer by excess parental compound. Each tracer was analyzed for binding to each HiBiT-GPCR fusion in the absence and in the presence of competing parental compound. Briefly, HEK293 cells were transfected with HiBiT-GPCR constructs diluted into promoterless DNA to reduce expression and maximize translocation to the cell surface. Each tracer candidate was then screened at concentrations of 1 μM and 0.1 μM across cells expressing these fusions. Cells were treated for 1.5 h with tracer either alone or in the presence of 20 μM competing parental compound (i.e., control). BRET was measured upon addition of purified LgBiT and subsequent complementation with HiBiT genetically fused to a GPCR. The specificity of interactions was assessed through a decrease in BRET signal due to competitive displacement of the bound tracer. To further gauge the robustness of these interactions, the fold response over the control (i.e., BRETtracer/BRETcontrol) was calculated. We chose a 1.5-fold response, which translates to ≥7-fold signal over noise as the minimal threshold required to score an interaction as positive.
(§2) HiBiT-GPCR DNA constructs were diluted in 10 mM Tris pH 8 to a final concentration of 0.01 μg/μL, arrayed in 96-well plates and stored at −20 °C. For transfection, HEK293 cells were suspended in Opti-MEM (without phenol red) supplemented with 2% fetal bovine serum (Seradigm) and 100 units/mL penicillin–streptomycin (Gibco) at a final concentration of 220,000 cells/mL and dispensed into white 96-well plates at 90 μL/well. Subsequent transfections and screens were carried using an Agilent Bravo Automated Liquid Handling Platform. First, the 96-well HiBiT DNA arrays were diluted 25-fold in Opti-MEM (without serum or phenol red) to a final concentration of 0.0004 μg/μL and 20 μL of the diluted DNAs were transferred into new 96-well plates. Next, promoterless carrier DNA (1 μg/μL) was diluted 25-fold (0.04 μg/μL) and then dispensed into the diluted arrays at 20 μL/well. Following brief mixing, Viafect transfection reagent (Promega) diluted 16-fold into Opti-MEM was dispensed into the plates at 40 μL/well. After mixing by pipetting, plates were incubated for 10 min on the pipetting station deck. The DNA-transfection reagent complexes were then added to plates containing cells. To facilitate the screen, 10 μL of DNA-transfection reagent complexes were added in duplicates to the top 4 and bottom 4 rows, resulting in two identical 48-well arrays per plate. Plates with transfected cells were incubated for 18–20 h at 37 °C/5% CO2. A screen of each tracer across the entire library using two different concentrations requires duplicate plates of transfected cells. Depending on the number of tracers being screened, transfections can be scaled up using the same ratios. The next day, for each tracer, four 20× screening solutions in tracer dilution buffer (Promega) were prepared: two duplicates at final concentration of 20 μM and two duplicates at a final concentration of 2 μM. […] The four resulting solutions were diluted 4-fold in Opti-MEM without serum or phenol red to generate 5× solutions (5 µM and 0.5 µM tracer +/− 100 μM competing compound). To screen the library, a BioTek MultiFlo FX liquid dispenser was used to dispense 22.5 µL of tracer solution to the top 4 rows and 22.5 µL tracer + competing compound solution to the 4 bottom rows. Plates were briefly mixed on an orbital shaker and incubated for 1.5 h at room temperature. […] Plates were briefly mixed on an orbital shaker and incubated for 15 min to allow complementation.

CHRM4 = target: T2, CHRM4 (Homo sapiens, UniProt P08173); assay: NanoBRET screen HiBiT-CHRM4 in HEK293; assay type: binding
T2 construct: purchased Promega (in-house HiBiT-GPCR construct library, NanoBRET)
T2 sequence (P08173 1-479): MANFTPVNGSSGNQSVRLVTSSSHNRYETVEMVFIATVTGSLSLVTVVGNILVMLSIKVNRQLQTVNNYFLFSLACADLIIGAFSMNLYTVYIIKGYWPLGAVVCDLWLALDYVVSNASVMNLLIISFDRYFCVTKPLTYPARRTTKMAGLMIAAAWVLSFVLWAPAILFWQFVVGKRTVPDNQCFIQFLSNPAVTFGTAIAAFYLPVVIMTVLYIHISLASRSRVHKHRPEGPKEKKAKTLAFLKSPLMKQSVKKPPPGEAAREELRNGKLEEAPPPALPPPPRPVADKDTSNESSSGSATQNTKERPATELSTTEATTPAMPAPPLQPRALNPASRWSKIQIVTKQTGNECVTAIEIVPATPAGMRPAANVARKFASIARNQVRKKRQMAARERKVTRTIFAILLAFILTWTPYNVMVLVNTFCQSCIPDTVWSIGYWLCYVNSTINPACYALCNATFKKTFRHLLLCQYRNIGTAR
Procedure: as §1, §2

T1 sequence (P29274 whole entry): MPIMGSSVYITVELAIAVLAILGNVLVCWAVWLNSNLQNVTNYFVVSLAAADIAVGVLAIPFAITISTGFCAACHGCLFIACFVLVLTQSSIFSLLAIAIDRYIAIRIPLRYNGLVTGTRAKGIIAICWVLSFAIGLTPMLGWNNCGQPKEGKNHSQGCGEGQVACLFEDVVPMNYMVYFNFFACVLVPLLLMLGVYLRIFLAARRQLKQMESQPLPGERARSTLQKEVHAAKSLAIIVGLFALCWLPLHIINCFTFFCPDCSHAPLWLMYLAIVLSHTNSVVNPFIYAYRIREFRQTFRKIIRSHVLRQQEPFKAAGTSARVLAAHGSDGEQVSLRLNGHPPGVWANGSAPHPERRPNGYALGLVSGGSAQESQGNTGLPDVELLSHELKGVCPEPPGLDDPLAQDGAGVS

## O=C(CCc1ccc2n1[B-](F)(F)[N+]1=C(c3ccc[nH]3)C=CC1=C2)NCc1ccc(C(=O)NCCOCCC(=O)N[C@@H]2CC[C@@]3(O)[C@H]4Cc5ccc(O)c6c5[C@@]3(CCN4CC3CC3)[C@H]2O6)cc1 [Naltrexone-3-NB590]
ADORA2A; ADORA2A, tracer 0.1μM
  NanoBRET Fold Response: 1.08
ADORA2A; ADORA2A, tracer 1μM
  NanoBRET Fold Response: 0.58
CHRM4; CHRM4, tracer 0.1μM
  NanoBRET Fold Response: 0.66
CHRM4; CHRM4, tracer 1μM
  NanoBRET Fold Response: 0.79

## CN1CCN(C2=Nc3cc(Cl)ccc3N(CC(=O)NCCOCCOCCOCCOCCNC(=O)CCc3ccc4n3[B-](F)(F)[N+]3=C(c5ccc[nH]5)C=CC3=C4)c3ccccc32)CC1 [Clozapine-c-2-NB590]
ADORA2A; ADORA2A, 0.1μM tracer
  NanoBRET Fold Response: 1.01
ADORA2A; ADORA2A, 1μM tracer
  NanoBRET Fold Response: 0.94
CHRM4; CHRM4, 0.1μM tracer
  NanoBRET Fold Response: 0.97
CHRM4; CHRM4, 1μM tracer
  NanoBRET Fold Response: 0.98

## O=C(CCOCCOCCOCCOCCNC(=O)CCc1ccc2n1[B-](F)(F)[N+]1=C(c3ccc[nH]3)C=CC1=C2)NCCCN1CCN(C2=Nc3cc(Cl)ccc3Nc3ccccc32)CC1 [Clozapine-a-2-NB590]
ADORA2A; ADORA2A, 0.1μM tracer
  NanoBRET Fold Response: 0.95
ADORA2A; ADORA2A, 1μM tracer
  NanoBRET Fold Response: 0.89
CHRM4; CHRM4, 0.1μM tracer
  NanoBRET Fold Response: 1.55
CHRM4; CHRM4, 1μM tracer
  NanoBRET Fold Response: 1.90

## CCOC(=O)c1cc(C#N)c(N2CCC(C(=O)NS(=O)(=O)Cc3ccccc3/C=C/C(=O)NCCNC(=O)CCc3ccc4n3[B-](F)(F)[N+]3=C(c5ccc[nH]5)C=CC3=C4)CC2)nc1C [AZD1283-1-NB590]
ADORA2A; ADORA2A, 0.1μM
  NanoBRET Fold Response: 1.06
ADORA2A; ADORA2A, 1μM
  NanoBRET Fold Response: 1.04
CHRM4; CHRM4, 0.1μM
  NanoBRET Fold Response: 0.97
CHRM4; CHRM4, 1μM
  NanoBRET Fold Response: 1.06

## COc1ccc2[nH]c(-c3ccc(CNC(=O)CCOCCOCCOCCOCCNC(=O)CCc4ccc5n4[B-](F)(F)[N+]4=C(c6ccc[nH]6)C=CC4=C5)cc3)c(CCNC(C)=O)c2n1 [AzomelatoninICO9-2-NB590]
ADORA2A; 0.1μM tracer
  NanoBRET Fold Response: 1.16
ADORA2A; 1μM tracer
  NanoBRET Fold Response: 0.82
CHRM4; 0.1μM tracer
  NanoBRET Fold Response: 0.77
CHRM4; 1μM tracer
  NanoBRET Fold Response: 0.98

## CCCn1c(=O)c2[nH]c(-c3ccc(OCC(=O)NCCNC(=O)CCOCCNC(=O)c4ccc(CNC(=O)CCc5ccc6n5[B-](F)(F)[N+]5=C(c7ccc[nH]7)C=CC5=C6)cc4)cc3)nc2n(CCC)c1=O [XAC-3-NB590]
ADORA2A; ADORA2A, tracer 0.1μM
  NanoBRET Fold Response: 7.87
ADORA2A; ADORA2A, tracer 1μM
  NanoBRET Fold Response: 9.18
CHRM4; CHRM4, tracer 0.1μM
  NanoBRET Fold Response: 0.78
CHRM4; CHRM4, tracer 1μM
  NanoBRET Fold Response: 1.10

## COc1ccccc1N1CCN(CCCCN2C(=O)c3ccc(CNC(=O)CCOCCNC(=O)c4ccc(CNC(=O)CCc5ccc6n5[B-](F)(F)[N+]5=C(c7ccc[nH]7)C=CC5=C6)cc4)cc3C2=O)CC1 [NAN-190-3-NB590]
ADORA2A; ADORA2A, tracer 0.1μM
  NanoBRET Fold Response: 1.00
ADORA2A; ADORA2A, tracer 1μM
  NanoBRET Fold Response: 0.91
CHRM4; CHRM4, tracer 0.1μM
  NanoBRET Fold Response: 1.30
CHRM4; CHRM4, tracer 1μM
  NanoBRET Fold Response: 0.66

## CN(CCC=C1c2ccccc2CCc2ccccc21)C(=O)CCOCCOCCOCCOCCNC(=O)CCc1ccc2n1[B-](F)(F)[N+]1=C(c3ccc[nH]3)C=CC1=C2 [Amitriptyline-e-2-NB590]
ADORA2A; tracer at 1μM
  NanoBRET Fold Response: 1.07
CHRM4; tracer at 1μM
  NanoBRET Fold Response: 1.25

## O=C(CCc1ccc2n1[B-](F)(F)[N+]1=C(c3ccc[nH]3)C=CC1=C2)NCc1ccc(C(=O)NCCOCCOCCNCC(O)COc2cccc3ccccc23)cc1 (stereo not shown) [Propranolol-3-NB590]
ADORA2A; ADORA2A, 0.1μM
  NanoBRET Fold Response: 1.05
ADORA2A; ADORA2A, 1μM
  NanoBRET Fold Response: 0.99
CHRM4; CHRM4, 0.1μM
  NanoBRET Fold Response: 0.96
CHRM4; CHRM4, 1μM
  NanoBRET Fold Response: 1.05

## COc1ccc2c(n1)c(CCNC(C)=O)cn2CCNC(=O)CCc1ccc2n1[B-](F)(F)[N+]1=C(c3ccc[nH]3)C=CC1=C2 [Azamelatonin-1-NB590]
ADORA2A; 0.1μM tracer
  NanoBRET Fold Response: 0.87
ADORA2A; 1μM tracer
  NanoBRET Fold Response: 0.92
CHRM4; 0.1μM tracer
  NanoBRET Fold Response: 0.74
CHRM4; 1μM tracer
  NanoBRET Fold Response: 0.98

## O=C(CCOCCOCCOCCOCCNC(=O)CCc1ccc2n1[B-](F)(F)[N+]1=C(c3ccc[nH]3)C=CC1=C2)NCCCN1CCN(C2=Nc3ccccc3Oc3ccc(Cl)cc32)CC1 [Loxapine-a-2-NB590]
ADORA2A; ADORA2A, tracer 0.1μM
  NanoBRET Fold Response: 1.08
ADORA2A; ADORA2A, tracer 1μM
  NanoBRET Fold Response: 1.11
CHRM4; CHRM4, tracer 0.1μM
  NanoBRET Fold Response: 1.11
CHRM4; CHRM4, tracer 1μM
  NanoBRET Fold Response: 1.18

## COc1ccccc1N1CCN(CCCCN2C(=O)c3ccc(CNC(=O)CCOCCOCCOCCOCCNC(=O)CCc4ccc5n4[B-](F)(F)[N+]4=C(c6ccc[nH]6)C=CC4=C5)cc3C2=O)CC1 [NAN-190-2-NB590]
ADORA2A; ADORA2A, tracer 0.1μM
  NanoBRET Fold Response: 1.02
CHRM4; CHRM4, tracer 0.1μM
  NanoBRET Fold Response: 1.18
CHRM4; CHRM4, tracer 1μM
  NanoBRET Fold Response: 1.17

## CC(C)N(CC[C@H](c1ccccc1)c1cc(CCNC(=O)c2ccc(CNC(=O)CCc3ccc4n3[B-](F)(F)[N+]3=C(c5ccc[nH]5)C=CC3=C4)cc2)ccc1O)C(C)C [Tolterodine-BZ-NB590]
ADORA2A; ADORA2A, tracer 0.1μM
  NanoBRET Fold Response: 1.00
ADORA2A; ADORA2A, tracer 1μM
  NanoBRET Fold Response: 1.01
CHRM4; CHRM4, tracer 0.1μM
  NanoBRET Fold Response: 3.69
CHRM4; CHRM4, tracer 1μM
  NanoBRET Fold Response: 2.39

## O=C(CCc1ccc2n1[B-](F)(F)[N+]1=C(c3ccc[nH]3)C=CC1=C2)NCCOCCOCCNC(=O)OCCOCCN1CCN(C2=Nc3ccccc3Sc3ccccc32)CC1 [Quetiapine-a-2-NB590]
ADORA2A; ADORA2A, tracer 0.1μM
  NanoBRET Fold Response: 0.99
ADORA2A; ADORA2A, tracer 1μM
  NanoBRET Fold Response: 0.91
CHRM4; CHRM4, tracer 0.1μM
  NanoBRET Fold Response: 1.65
CHRM4; CHRM4, tracer 1μM
  NanoBRET Fold Response: 2.06

## CN1CCN(C2=Nc3cc(Cl)ccc3Nc3ccc(CNC(=O)CCOCCOCCOCCOCCNC(=O)CCc4ccc5n4[B-](F)(F)[N+]4=C(c6ccc[nH]6)C=CC4=C5)cc32)CC1 [Clozapine-b-2-NB590]
ADORA2A; ADORA2A, 0.1μM tracer
  NanoBRET Fold Response: 0.97
ADORA2A; ADORA2A, 1μM tracer
  NanoBRET Fold Response: 1.00
CHRM4; CHRM4, 0.1μM tracer
  NanoBRET Fold Response: 1.48
CHRM4; CHRM4, 1μM tracer
  NanoBRET Fold Response: 2.78

## CC(C)N(CC[C@H](c1ccccc1)c1cc(CCNC(=O)CCOCCOCCOCCOCCNC(=O)CCc2ccc3n2[B-](F)(F)[N+]2=C(c4ccc[nH]4)C=CC2=C3)ccc1O)C(C)C [Tolterodine-2-NB590]
ADORA2A; ADORA2A, tracer 0.1μM
  NanoBRET Fold Response: 1.35
ADORA2A; ADORA2A, tracer 1μM
  NanoBRET Fold Response: 0.95
CHRM4; CHRM4, tracer 0.1μM
  NanoBRET Fold Response: 2.75
CHRM4; CHRM4, tracer 1μM
  NanoBRET Fold Response: 1.53

## CN(C)CCC=C1c2ccccc2CCc2ccc(C(=O)NCCNC(=O)CCOCCOCCOCCOCCNC(=O)CCc3ccc4n3[B-](F)(F)[N+]3=C(c5ccc[nH]5)C=CC3=C4)cc21 [Amitriptyline-a-2-NB590]
ADORA2A; tracer at 0.1μM
  NanoBRET Fold Response: 1.02
ADORA2A; tracer at 1μM
  NanoBRET Fold Response: 1.07
CHRM4; tracer at 1μM
  NanoBRET Fold Response: 1.45
